First: CCN(CC)c1ccc(C(c2ccc(N(C)C)cc2)c2ccc(N(C)C)cc2)c(OC(=O)Nc2ccccc2)c1
Second: COc1cccc(NC(=O)NCC(=O)N(c2ccccc2)c2ccccc2)c1
The melting point of the first is lower: 145 to 146 °C for the first, 182 °C for the second.

First: CC(C)(C)c1cc2c(c(C(C)(C)C)c1O)CC1(CCSCC1)O2
Second: CC(C)(C)OC(=O)N[C@H]1CCN(c2nc3c(cc2F)c(=O)c(C(=O)O)cn3C2CC2)C1
The melting point of the first is lower: 209 °C for the first, 247 to 249 °C for the second.

First: Clc1c(OCC2CO2)cccc1N1CCCCC1 (centres undefined)
Second: O=C(O)c1ccc(C=CC(=O)N2CCCCC2)cc1
The melting point of the first is lower: 55 to 57 °C for the first, 257 °C for the second.

First: COC1=C(OC)C(=O)C(CCCCCCCCCCCCCCCCCCCCO)=C(C)C1=O
Second: CCCCCCCCS(=O)(=O)Nc1cc(C(=O)Nc2ccccc2)ccc1OC
The melting point of the first is lower: 85 °C for the first, 154 to 155 °C for the second.

First: COc1ccc(-c2sc3cc(OC)ccc3c2C(=O)c2cc(OC)cc(OC)c2)cc1
Second: COc1cc(Nc2nccc(-c3cccc(OCCO)c3)n2)cc(OC)c1OC
The melting point of the first is higher: 114 to 120 °C for the first, 70 °C for the second.

Compared with `CN(C)CCCC1(O)c2ccccc2C=Cn2cc(C#N)cc21` (centres undefined), `CCOC(=O)c1cnn(C)c1NCc1ccc(-c2ccccc2C#N)cc1` is lower in melting point: 123 to 126 °C for the first, 107 to 108 °C for the second.

First: Cc1ncc(C#N)c(Nc2cccc3[nH]ccc23)c1-c1cc2ccccc2o1
Second: Cn1cc(C2=C(c3c[nH]c4cc([N+](=O)[O-])ccc34)C(=O)NC2=O)c2ccccc21
The melting point of the first is lower: 192 to 193 °C for the first, greater than 260 °C for the second.

First: COc1ccc(CN2Cc3c(C(N)=O)ncn3-c3ccc(Cl)cc3C2=O)c(OC)c1
Second: CCCn1cc(Cc2ccc(C(=O)O)cc2OC)c2cc(CC3CCN(CC)C3=O)ccc21 (centres undefined)
The melting point of the first is higher: greater than 220 °C for the first, 94 to 99 °C for the second.

Compared with `CN1C(=O)CC[C@]2(C)c3ccc(C(=O)OC(c4ccccc4)c4ccccc4)cc3CC[C@@H]12`, `O=C(Cc1ccccc1)Nc1cnc(-c2ccccc2)nc1Cl` is higher in melting point: 130 to 131 °C for the first, 169 °C for the second.

First: CCCCn1c(=O)c(NC(=O)Nc2c(C(C)C)cccc2C(C)C)c(-c2cccc(OCCC)c2)c2cccnc21
Second: CC(O)c1ccc(C(O)(c2ccc3c(c2)c(-c2cccc(Cl)c2)cc(=O)n3C)c2cncn2C)cc1 (centres undefined)
The melting point of the first is lower: 154 to 156 °C for the first, 181 °C for the second.

First: COC(=O)COc1c(Br)cc(-c2c3ccccc3c(Br)c3sc4ccccc4c23)cc1Br
Second: COC(=O)c1c2ccccc2nc2cc(Cl)ccc12
The melting point of the first is higher: 183 to 184 °C for the first, 148 °C for the second.

First: CCOCOCCCc1ccc(C(=O)O)cc1C12CC3CC(CC(C3)C1)C2
Second: O=C(N1CC2CCC(C1)O2)C12CC3CC(CC(C3)C1)C2
The melting point of the first is lower: 115 °C for the first, 134 to 136 °C for the second.

Compared with `CCOC(=O)c1ccc(C)c(NC(=O)C2=C(C)OCCS2)c1`, `CCN1C(=O)C(C(=O)Nc2ccc(F)cc2F)c2cc(C(C)=O)ccc21` (centres undefined) is higher in melting point: 105 to 107 °C for the first, 160 to 161 °C for the second.

First: C=C1CCC2(Cc3ccccc3)C3Cc4ccc(O)cc4C2(CCN3CC2CC2)C1 (centres undefined)
Second: CCN(c1nc(F)ccc1[N+](=O)[O-])C1CCN(Cc2ccccc2)CC1
The melting point of the first is higher: 212 °C for the first, 99 to 100 °C for the second.

First: CC(=NNC(=N)N)c1sc(-c2ccc(-c3ccccc3)cc2)nc1C
Second: CCOC(=O)C1=C(O)c2ccccc2N(c2ccccc2)C1
The melting point of the first is higher: 278 to 280 °C for the first, 103 to 106 °C for the second.

Compared with `Cc1cccc(-n2cc(-c3ccc4c(c3)N(C(=O)CN3CCN(C)CC3)CCO4)nn2)n1`, `Cc1cccc(C)c1NC(=O)CN1CCN(c2ncnc3sccc23)C(C)C1` (centres undefined) is higher in melting point: 132 °C for the first, 184 to 185 °C for the second.

First: O=C1Nc2cc(F)ccc2C1CCCCN1CCN(c2ccccn2)CC1 (centres undefined)
Second: COc1ccc(OCCCC2CCN(c3ccc(Cl)nn3)CC2)c(Cl)c1
The melting point of the first is higher: 136 to 137 °C for the first, 101 °C for the second.

First: O=C(NCc1cccc(Br)c1)c1ccc2cnccc2n1
Second: Cc1cc(Cl)cc(C(=O)Nc2ccnc(Cl)c2)n1
The melting point of the first is lower: 112 to 113 °C for the first, 221 °C for the second.

First: O=C1c2ccccc2OCC1C(=O)C(F)(F)F (centres undefined)
Second: O=C(c1ccc(-c2cc(Cl)ccc2O)cc1C(F)(F)F)N1CCCC1
The melting point of the first is lower: 81 to 83 °C for the first, 220 to 221 °C for the second.

Compared with `COC(=O)Nc1nc2ccc(SC[Si](C)(C)C)cc2[nH]1`, `Cc1cccc(NC(=O)OC(C)(C)C)c1CNc1cccn2c(C)c(C)nc12` is lower in melting point: 189 to 191 °C for the first, 128 to 131 °C for the second.

First: CC(=O)Nc1cccc2cc(S(=O)(=O)Nc3onc(C)c3C)ccc12
Second: Cc1noc(NS(=O)(=O)c2ccccc2-c2ccc(-c3ncco3)cc2CN2CCN(c3ccccc3)C2=O)c1C
The melting point of the first is higher: 210 to 212 °C for the first, 140 to 150 °C for the second.

Compared with `CC(C)(C)OC(=O)C[C@@H](CC1CCCC1)C(=O)O`, `NC(=O)CN1C(=O)C[C@@H]2CCCC[C@@H]21` (relative stereo) is higher in melting point: 86.5 to 88 °C for the first, 145 to 146 °C for the second.

First: Nc1nc(Cl)c(-c2ccc(Cl)cc2Cl)c(Cl)n1
Second: Nc1nc(-c2cc(Cl)ccc2Cl)nc(N2CC(O)CC2C(=O)O)n1 (centres undefined)
The melting point of the first is higher: 211 to 213 °C for the first, 138 to 145 °C for the second.

First: CCc1nc2c(cnn2CC)c(NC2CCOCC2)c1CNC(=O)c1cccc(C(=O)NCc2ccc(Cl)c(-c3cccc(CN4CCNC(C)C4)c3)c2)c1 (centres undefined)
Second: Cc1cc(-n2ccnc2)c2cccc(OCc3c(Cl)ccc(S(=O)(=O)N4CCC[C@H]4C(=O)NCCCCCN(C)C)c3Cl)c2n1
The melting point of the first is higher: 117 to 120 °C for the first, 85 °C for the second.

Compared with `N#Cc1ccc2sc3c(c2c1)CC(C=O)CC3` (centres undefined), `COc1ccc2cccc3c2c1CCC3CNC(C)=O` (centres undefined) is lower in melting point: 172 to 173 °C for the first, 126 °C for the second.

Compared with `Cc1ccn(-c2ccc(-c3nc4cccnc4n3-c3ccc(CCNCC(O)COc4ccc(O)cc4)cc3)c(Cl)c2)n1` (centres undefined), `COc1ccc(-c2nnc(Nc3ccc4cccnc4c3)cc2-c2ccc(C(F)(F)F)cc2)cc1` is higher in melting point: 87 to 89 °C for the first, 215 to 217 °C for the second.

Compared with `CC1CC(=O)NN=C1c1ccc(NC(=O)C2(Cl)CC2)cc1` (centres undefined), `O=c1c2c[nH]c3c(c-2nn1-c1ccccc1)CCC3` is higher in melting point: 189 to 190 °C for the first, greater than 350 °C for the second.

First: CCn1c(=O)c2c(nc(/C=C/c3ccc(OC)c(OC)c3)n2C)n(CC)c1=O
Second: COc1cc(C(=O)CS(C)(=O)=O)cc(OC)c1N(C)C(C)=O
The melting point of the first is higher: 190 to 191 °C for the first, 141 to 142 °C for the second.

First: CC(=O)Sc1c(F)c(F)c(C=O)c(F)c1F
Second: CNC(=O)COc1cc(-n2c(=O)cc(C(F)(F)F)n(C)c2=O)c(F)cc1Cl
The melting point of the first is lower: 86 to 87 °C for the first, 190 to 192 °C for the second.

Compared with `OCCOc1ccccc1-c1ccccc1`, `NC(=O)CC1(c2ccccc2)C(=O)Nc2ccccc21` (centres undefined) is higher in melting point: 71 to 75 °C for the first, 184 to 185 °C for the second.

Compared with `C=Cc1ccc(CN2CCN(Cc3ccc(C=C)cc3)CCN(Cc3ccc(C=C)cc3)CC2)cc1`, `COCc1cc(C(O)CN(Cc2ccccc2)Cc2ccccc2)ccc1OCc1ccccc1` (centres undefined) is lower in melting point: 71 to 73 °C for the first, 52 to 57 °C for the second.

First: COCn1ccnc1C(O)(c1ccc(F)cc1)c1ccc(Cl)cc1Cl (centres undefined)
Second: O=C(Nc1c(C(O)(C(F)(F)F)C(F)(F)F)ccc2ccccc12)c1ccc(Cl)cc1
The melting point of the first is higher: 179 °C for the first, 175 to 176 °C for the second.

Going from `CCCCC(=O)OCC(=O)C1C(C)CC2C3CC(Cl)C4=CC(=O)C=CC4(C)C3(Cl)C(O)CC21C` (centres undefined) to `CN(CC=C(F)C(F)(F)C(F)(F)F)CCCCCC1Cc2cc(O)ccc2C2C(F)CC3(C)C(O)CCC3C12` (centres undefined), the melting point falls from 218 °C to 122 °C.

Compared with `O=C(CCCCC1CCSS1)N1CCSCC1` (centres undefined), `COc1ccc(C(=O)C2CCN(CCCO)CC2)cc1` is higher in melting point: 31 to 32 °C for the first, 102 to 105 °C for the second.

Compared with `C[C@@H](Nc1c(NCc2ccc(Cl)cc2Cl)c(=O)c1=O)C(C)(C)C`, `Nc1cc(=O)n(Cc2ccc(Cl)cc2Cl)[nH]1` is lower in melting point: 235 to 239 °C for the first, 189 °C for the second.

First: CCOP(=O)(Cc1cc(C=O)ccc1O)OCC
Second: CCCc1csc2ncc(C(=O)OC)n12
The melting point of the first is lower: 88 to 88.5 °C for the first, 149 to 150 °C for the second.

Compared with `CNC(=O)CC(S)C(CC(C)C)C(=O)NC(Cc1ccc(OC)cc1)C(=O)NC` (centres undefined), `NCCNC(=O)c1ccc(F)cc1` is lower in melting point: 175 to 190 °C for the first, 57 to 60 °C for the second.

First: FC(F)c1cc(-c2ccc(C(F)(F)F)cc2)nc2c(I)ncn12
Second: CCCCCOc1ccc(-c2ncc(C#N)cn2)cc1
The melting point of the first is higher: 159 °C for the first, 98 to 98.1 °C for the second.

Compared with `CN(C)C(=S)SSCCSSC(=S)N(C)C`, `CNC(=C[N+](=O)[O-])NCCSCc1cc(CN(C)C)ccn1` is lower in melting point: 142 to 143 °C for the first, 113 to 115 °C for the second.

First: Cc1cn2ccccc2c1[N+](=O)[O-]
Second: CC1(COc2nc3ccccc3o2)Cn2cc([N+](=O)[O-])nc2O1 (centres undefined)
The melting point of the first is lower: 137 to 139 °C for the first, 200 to 203 °C for the second.

First: COC(=O)c1cc2c(Br)cccc2n1C
Second: CCOC(=O)c1cnc2c([N+](=O)[O-])cccc2c1Cl
The melting point of the first is lower: 85 to 86 °C for the first, 253 to 254 °C for the second.

First: CCOC(=O)C1=C(COC(C)=O)Nc2nc(N)nc(N)c2C1c1cccc([N+](=O)[O-])c1 (centres undefined)
Second: CCNC(=O)NCc1cccc2c1C(=O)N(C1(C)CCC(=O)NC1=O)C2=O (centres undefined)
The melting point of the first is lower: 219 °C for the first, 220 to 222 °C for the second.

First: COc1cccc2c(=O)n(C)c(-c3ccc(OC4CCN(C5CCC5)CC4)cc3)nc12
Second: COc1cc(C2CCN(C(=O)C(C)(C)N)CC2)ccc1Nc1ncc2ccc(-c3ccccc3OC)n2n1
The melting point of the first is higher: 201 to 204 °C for the first, 81 to 89 °C for the second.

Compared with `C=CC1CCC(C2CCC3c4ccc(OCC)c(F)c4OC3C2)CC1` (centres undefined), `C=Cc1cc(C2=NCCO2)ccc1OCCCCCc1cc(C)no1` is lower in melting point: 132 °C for the first, 116 to 117 °C for the second.

Compared with `CN1C(=O)CN(CCC#N)C1=O`, `CCOC(=O)c1cnc2ccnn2c1Cl` is higher in melting point: 53 °C for the first, 93 to 95 °C for the second.

Compared with `COc1cc(CF)nc(N)n1`, `COc1cc2ncc3c(N)nc(C)cc3c2cc1OC` is higher in melting point: 119 to 121 °C for the first, 244 to 248 °C for the second.

First: CSC(=C[N+](=O)[O-])NCC(O)c1cccc(C)c1 (centres undefined)
Second: Cc1cc(=O)n(-c2cccc(Cl)c2)c(=O)[nH]1
The melting point of the first is lower: 99 to 101 °C for the first, 250 to 252 °C for the second.

First: O=C(Cn1nc(Br)nc1Br)N1CCC(c2nc(C3=NOC(c4c(F)cccc4F)C3)cs2)CC1 (centres undefined)
Second: CN(C(=O)c1ccc2c(c1)nc(NC(=O)c1cccs1)n2CCCOC(=O)c1cccs1)C1CCCCC1
The melting point of the first is higher: 185 to 189 °C for the first, 92 to 94 °C for the second.

Compared with `CS(=O)(=O)Nc1cc2occ(C(N)=O)c(=O)c2cc1Oc1ccccc1`, `CCCCc1oc2ccccc2c1S(=O)(=O)c1ccc(O)cc1` is lower in melting point: greater than 250 °C for the first, 163 to 165 °C for the second.

`CC(=O)NCCC1CCc2ccc3nc(C)oc3c21` (centres undefined) showed a melting point of 93 to 95 °C.

Reference: a melting point compilation (Tetko et al.; mined from patent text by program, amines drawn as free bases though some values may be those of a salt)
